Read-outs that look alike come from different tables or passages of the source.
How the values were obtained:
[1] = target: T1, MEK1 activated ERK1 (Homo sapiens, UniProt P27361); experiment: Omnia continuous-read kinase assay for potency against MEK1 activated ERK1; assay type: biochemical
T1 construct: purchased Millipore (Billerica, Mass.) 14-439-K
Outline: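 Apparent IC50 came from initial reaction slopes (RFU vs time) plotted against log inhibitor with a variable-slope fit. Reactions were started with ERK1 (4 nM final) added to 50 μM ATP, roughly at its appKM, and 10 μM Sox-conjugated ST17 peptide in 20 mM Tris pH 7.5, 5 mM MgCl2. Fluorescence was monitored every 71 seconds.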

[2] = tested on: ERK1/2 phosphorylation of p90RSK in A375 cells; experiment: Detection of total and phosphor-RSK by MSD ELISA (A375); assay type: cell-based; conditions: Homo sapiens, A-375, read-out: ERK1/ERK2 PRSK A375 EC50
Outline: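 A375 cells serum-starved overnight in DMEM/0.1% FBS, then treated 2 h at 37° C with compound (1000× DMSO dilutions into medium). Lysates captured on RSK antibody-coated MSD plates; phospho-RSK (Ser380) and total RSK detected with SulfoTag secondary antibodies by electrochemiluminescence.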

[3] = MEK1 activated ERK1, ATP at KM, read-out: ERK1 Omnia WT ATP KM IC50

T1 sequence (P27361 whole entry): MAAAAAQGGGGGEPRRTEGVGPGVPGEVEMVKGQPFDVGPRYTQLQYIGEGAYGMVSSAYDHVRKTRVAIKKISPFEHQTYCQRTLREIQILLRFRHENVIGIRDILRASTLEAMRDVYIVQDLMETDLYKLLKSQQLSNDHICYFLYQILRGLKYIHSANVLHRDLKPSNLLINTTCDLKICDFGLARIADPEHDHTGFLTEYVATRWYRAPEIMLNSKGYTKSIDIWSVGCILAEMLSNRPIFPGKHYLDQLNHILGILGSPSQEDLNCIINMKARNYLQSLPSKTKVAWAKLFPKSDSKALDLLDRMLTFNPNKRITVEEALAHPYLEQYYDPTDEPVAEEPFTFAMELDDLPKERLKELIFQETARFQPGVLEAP

## C=CC(=O)Nc1cc(OCCN2CCN(C(C)=O)CC2)ccc1Nc1nc(Nc2cc(OC)ncc2C)ncc1C(F)(F)F [Compound I-416, N-(5-(2-(4-acetylpiperazin-1-yl)ethoxy)-2-((2-((2-methoxy-5-methylpyridin-4-yl)amino)-5-(trifluoromethyl)pyrimidin-4-yl)amino)phenyl)acrylamide]
[1]; ATP at KM, WT
  IC50: < 100 nM
[2]
  EC50: 101 to 500 nM

## C=CC(=O)Nc1cc(C)ccc1Nc1nc(Nc2ccc3ocnc3c2)ncc1C(F)(F)F [Compound I-375, N-(2-((2-(benzo[d]oxazol-5-ylamino)-5-(trifluoromethyl)pyrimidin-4-yl)amino)-5-methylphenyl)acrylamide]
[1]; ATP at KM, WT
  IC50: > 1000 nM
[2]
  EC50: 101 to 500 nM

## C=CC(=O)Nc1cc(C)ccc1Nc1nc(Nc2cc(C(=O)OC)nn2C)ncc1C(F)(F)F [Compound I-418, Methyl 5-((4-((2-acrylamido-4-methylphenyl)amino)-5-(trifluoromethyl)pyrimidin-2-yl)amino)-1-methyl-1H-pyrazole-3-carboxylate]
[1]; ATP at KM, WT
  IC50: 101 to 500 nM
[2]
  EC50: 501 to 999 nM

## C=CC(=O)Nc1cc(C)ccc1Nc1nc(Nc2cc(OC)nc(N3CCN(C(C)=O)CC3)c2)ncc1C(F)(F)F [Compound I-93, N-(2-((2-((2-(4-Acetylpiperazin-1-yl)-6-methoxypyridin-4-yl)amino)-5-(trifluoromethyl)pyrimidin-4-yl)amino)-5-methylphenyl)acrylamide]
[1]; [3]
  IC50: 101 to 500 nM
[2]
  EC50: < 100 nM

## C=CC(=O)Nc1cc(CCc2cnn(C)c2)ccc1Nc1nc(Nc2cc(OC)ncc2C)ncc1C(F)(F)F [Compound I-427, N-(2-((2-((2-methoxy-5-methylpyridin-4-yl)amino)-5-(trifluoromethyl)pyrimidin-4-yl)amino)-5-(2-(1-methyl-1H-pyrazol-4-yl)ethyl)phenyl)acrylamide]
[1]; ATP at KM, WT
  IC50: 101 to 500 nM
[2]
  EC50: 101 to 500 nM

## C=CC(=O)Nc1cc(CN2CCN(C(=O)c3cnccn3)CC2)ccc1Nc1nc(Nc2cc(OC)ncc2C)ncc1C(F)(F)F [Compound I-390, N-(2-((2-((2-methoxy-5-methylpyridin-4-yl)amino)-5-(trifluoromethyl)pyrimidin-4-yl)amino)-5-((4-(pyrazine-2-carbonyl)piperazin-1-yl)methyl)phenyl)acrylamide]
[1]; ATP at KM, WT
  IC50: < 100 nM
[2]
  EC50: < 100 nM

## C=CC(=O)Nc1cc(C)ccc1Nc1nc(Nc2nc(OC)ncc2C#N)ncc1C(F)(F)F [Compound I-346, N-(2-((2-((5-cyano-2-methoxypyrimidin-4-yl)amino)-5-(trifluoromethyl)pyrimidin-4-yl)amino)-5-methylphenyl)acrylamide]
[1]; ATP at KM, WT
  IC50: 501 to 999 nM
[2]
  EC50: 101 to 500 nM

## C=CC(=O)Nc1cc(CN2CCN(C(=O)CO)CC2)ccc1Nc1nc(Nc2nc(OC)ncc2C)ncc1C(F)(F)F [Compound I-386, N-(5-((4-(2-hydroxyacetyl)piperazin-1-yl)methyl)-2-((2-((2-methoxy-5-methylpyrimidin-4-yl)amino)-5-(trifluoromethyl)pyrimidin-4-yl)amino)phenyl)acrylamide]
[1]; ATP at KM, WT
  IC50: 501 to 999 nM
[2]
  EC50: > 1000 nM

## C=CC(=O)Nc1cc(C)ccc1Nc1nc(Nc2cc(C(N)=O)nn2C)ncc1C(F)(F)F [Compound I-423, 5-((4-((2-acrylamido-4-methylphenyl)amino)-5-(trifluoromethyl)pyrimidin-2-yl)amino)-1-methyl-1H-pyrazole-3-carboxamide]
[1]; ATP at KM, WT
  IC50: > 1000 nM
[2]
  EC50: > 1000 nM

## C=CC(=O)Nc1cc(C)ccc1Nc1nc(Nc2ccnc3ccccc23)ncc1C(F)(F)F [Compound I-379, N-(5-methyl-2-((2-(quinolin-4-ylamino)-5-(trifluoromethyl)pyrimidin-4-yl)amino)phenyl)acrylamide]
[1]; ATP at KM, WT
  IC50: 101 to 500 nM
[2]
  EC50: < 100 nM

## C=CC(=O)Nc1cc(C)ccc1Nc1nc(Nc2nc(OC)ncc2OC)ncc1C(F)(F)F [Compound I-349, N-(2-((2-((2,5-dimethoxypyrimidin-4-yl)amino)-5-(trifluoromethyl)pyrimidin-4-yl)amino)-5-methylphenyl)acrylamide]
[1]; ATP at KM, WT
  IC50: 101 to 500 nM
[2]
  EC50: 101 to 500 nM

## C=CC(=O)Nc1cc(C)c(C#N)cc1Nc1nc(NC2CCOCC2)ncc1C(F)(F)F [Compound I-397, N-(4-cyano-5-methyl-2-((2-((tetrahydro-2H-pyran-4-yl)amino)-5-(trifluoromethyl)pyrimidin-4-yl)amino)phenyl)acrylamide]
[1]; ATP at KM, WT
  IC50: > 1000 nM
[2]
  EC50: 501 to 999 nM

## C=CC(=O)Nc1cc(C)ccc1Nc1nc(Nc2cc(C(F)(F)F)nn2C)ncc1C(F)(F)F [Compound I-419, N-(5-methyl-2-((2-((1-methyl-3-(trifluoromethyl)-1H-pyrazol-5-yl)amino)-5-(trifluoromethyl)pyrimidin-4-yl)amino)phenyl)acrylamide]
[1]; ATP at KM, WT
  IC50: > 1000 nM
[2]
  EC50: > 1000 nM

## C=CC(=O)Nc1cc(C)c(F)cc1Nc1nc(Nc2nc(OC)ncc2Cl)ncc1C(F)(F)F [Compound I-374, N-(2-((2-((5-chloro-2-methoxypyrimidin-4-yl)amino)-5-(trifluoromethyl)pyrimidin-4-yl)amino)-4-fluoro-5-methylphenyl)acrylamide]
[1]; ATP at KM, WT
  IC50: < 100 nM
[2]
  EC50: < 100 nM

## C=CC(=O)Nc1cc(C)ccc1Nc1nc(NCC2COC2)ncc1C(F)(F)F [Compound I-417, N-(5-methyl-2-((2-((oxetan-3-ylmethyl)amino)-5-(trifluoromethyl)pyrimidin-4-yl)amino)phenyl)acrylamide]
[1]; ATP at KM, WT
  IC50: > 1000 nM
[2]
  EC50: > 1000 nM

## C=CC(=O)Nc1cc(C)ccc1Nc1nc(Nc2nc(OC)ncc2F)ncc1C(F)(F)F [Compound I-357, N-(2-((2-((5-fluoro-2-methoxypyrimidin-4-yl)amino)-5-(trifluoromethyl)pyrimidin-4-yl)amino)-5-methylphenyl)acrylamide]
[1]; ATP at KM, WT
  IC50: 101 to 500 nM
[2]
  EC50: 101 to 500 nM

## C=CC(=O)Nc1cc(C)ccc1Nc1nc(Nc2ncc(C(F)(F)F)c(OC)n2)ncc1C(F)(F)F [Compound I-354, N-(2-((2-((4-methoxy-5-(trifluoromethyl)pyrimidin-2-yl)amino)-5-(trifluoromethyl)pyrimidin-4-yl)amino)-5-methylphenyl)acrylamide]
[1]; ATP at KM, WT
  IC50: 101 to 500 nM
[2]
  EC50: 101 to 500 nM

## C=CC(=O)Nc1ccccc1Nc1nc(Nc2cc(OC)ncc2C)ncc1C(F)(F)F [Compound I-85, N-(2-((2-((2-Methoxy-5-methylpyridin-4-yl)amino)-5-(trifluoromethyl)pyrimidin-4-yl)amino)phenyl)acrylamide]
[1]; [3]
  IC50: < 100 nM
[2]
  EC50: < 100 nM

## C=CC(=O)Nc1cc(O[C@H](C)C(=O)N2CCN(S(C)(=O)=O)CC2)ccc1Nc1nc(Nc2cc(OC)ncc2C)ncc1C(F)(F)F [Compound I-410, (R)—N-(2-((2-((2-methoxy-5-methylpyridin-4-yl)amino)-5-(trifluoromethyl)pyrimidin-4-yl)amino)-5-((1-(4-(methylsulfonyl)piperazin-1-yl)-1-oxopropan-2-yl)oxy)phenyl)acrylamide]
[1]; ATP at KM, WT
  IC50: < 100 nM
[2]
  EC50: 101 to 500 nM

## C=CC(=O)Nc1cc(O[C@H](C)C(N)=O)ccc1Nc1nc(Nc2cc(OC)ncc2C)ncc1C(F)(F)F [Compound I-413, (R)—N-(5-((1-amino-1-oxopropan-2-yl)oxy)-2-((2-((2-methoxy-5-methylpyridin-4-yl)amino)-5-(trifluoromethyl)pyrimidin-4-yl)amino)phenyl)acrylamide]
[1]; ATP at KM, WT
  IC50: < 100 nM
[2]
  EC50: < 100 nM

## C=CC(=O)Nc1cc(CN2CCN(C(C)=O)CC2)ccc1Nc1nc(Nc2nc(OC)ncc2C)ncc1C(F)(F)F [Compound I-382, N-(5-((4-acetylpiperazin-1-yl)methyl)-2-((2-((2-methoxy-5-methylpyrimidin-4-yl)amino)-5-(trifluoromethyl)pyrimidin-4-yl)amino)phenyl)acrylamide]
[1]; ATP at KM, WT
  IC50: 101 to 500 nM
[2]
  EC50: > 1000 nM

## C=CC(=O)Nc1cc(CN2CCN(C(=O)CO)CC2)ccc1Nc1nc(Nc2cc(OC)ncc2C)ncc1C(F)(F)F [Compound I-385, N-(5-((4-(2-hydroxyacetyl)piperazin-1-yl)methyl)-2-((2-((2-methoxy-5-methylpyridin-4-yl)amino)-5-(trifluoromethyl)pyrimidin-4-yl)amino)phenyl)acrylamide]
[1]; ATP at KM, WT
  IC50: < 100 nM
[2]
  EC50: < 100 nM

Source: US9561228B2 (Celgene Avilomics Research, Inc., priority 2013, dated 2017)
